Data reported in ChEMBL document CHEMBL1149234, “Exploration of the P1 SAR of aldehyde cathepsin K inhibitors” (Bioorg Med Chem Lett, 2004).
pIC50: −log10 of the molar value.

Target: T1, Cathepsin K (Homo sapiens, UniProt P43235)
T1 sequence (P43235 whole entry): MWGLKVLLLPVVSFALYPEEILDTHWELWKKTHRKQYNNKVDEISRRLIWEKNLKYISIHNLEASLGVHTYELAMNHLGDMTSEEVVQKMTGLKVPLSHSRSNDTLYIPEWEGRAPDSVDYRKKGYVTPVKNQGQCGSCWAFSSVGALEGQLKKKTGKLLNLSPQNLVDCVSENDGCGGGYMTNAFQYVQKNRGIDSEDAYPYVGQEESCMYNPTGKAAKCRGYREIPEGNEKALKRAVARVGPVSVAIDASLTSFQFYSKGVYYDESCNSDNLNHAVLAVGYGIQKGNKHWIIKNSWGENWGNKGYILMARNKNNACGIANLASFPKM
Assay: Inhibitory activity against recombinant human cathepsin K

SMILES	pIC50
CC(C)(C)OC(=O)N[C@H](C=O)CCCc1ccccc1	7.82
CCC(C)[C@@H](C=O)NC(=O)OC(C)(C)C (stereo partly drawn)	6.60
CCCCC[C@@H](C=O)NC(=O)OC(C)(C)C	6.96
CSCC[C@@H](C=O)NC(=O)OC(C)(C)C	7.11
CC(C)(C)OC(=O)N[C@H](C=O)c1ccccc1	7.29
CN(CCCC[C@@H](C=O)NC(=O)OC(C)(C)C)C(=O)C(F)(F)F	7.30
CN(CCC[C@@H](C=O)NC(=O)OC(C)(C)C)C(=O)C(F)(F)F	7.54
CC[C@@H](C=O)NC(=O)OC(C)(C)C	7.24
CCOC[C@@H](C=O)NC(=O)OC(C)(C)C	6.18
CC(C)(C)OC(=O)N[C@H](C=O)Cc1ccccc1	6.96
C/C=C/C[C@@H](C=O)NC(=O)OC(C)(C)C	6.82
C[C@@H](C=O)NC(=O)OC(C)(C)C	6.70
CC(C)(C)OC(=O)NCC=O	5.24
CC(C)(C)OC(=O)N[C@H](C=O)CCCC(F)(F)F	7.06
CC(C)(C)OC(=O)N[C@H](C=O)CCC1CCCCC1	7.59
C/C=C\C[C@@H](C=O)NC(=O)OC(C)(C)C	7.39
CCCC[C@@H](C=O)NC(=O)OC(C)(C)C	7.29

Second part, the compound after the results:

pIC50	SMILES
7.64	CCCCCC[C@@H](C=O)NC(=O)OC(C)(C)C
6.43	COC(=O)NC[C@@H](C=O)NC(=O)OC(C)(C)C
6.89	CCC(C)[C@H](C=O)NC(=O)OC(C)(C)C (stereo partly drawn)
7.80	CC(C)(C)OC(=O)N[C@H](C=O)CCCC1CCCCC1
7.44	CC(C)(C)OC(=O)N[C@H](C=O)CC1CCCCC1
7.52	CC(C)(C)OC(=O)N[C@H](C=O)CCc1ccccc1
6.80	CC(C)[C@@H](C=O)NC(=O)OC(C)(C)C
7.39	CC(C)(C)OC(=O)N[C@H](C=O)CCCCNC(=O)C(F)(F)F
6.17	COCC[C@@H](C=O)NC(=O)OC(C)(C)C
7.01	CN(CC[C@@H](C=O)NC(=O)OC(C)(C)C)C(=O)C(F)(F)F
7.08	CCSC[C@@H](C=O)NC(=O)OC(C)(C)C
6.60	CC(C)(C)C[C@@H](C=O)NC(=O)OC(C)(C)C
7.42	CCC[C@@H](C=O)NC(=O)OC(C)(C)C
6.39	CC#CC[C@@H](C=O)NC(=O)OC(C)(C)C
4.28	CC(C)(C)OC(=O)N[C@H](C=O)C(C)(C)C
7.82	COC(=O)NCCCC[C@@H](C=O)NC(=O)OC(C)(C)C
7.10	C=C(C)C[C@@H](C=O)NC(=O)OC(C)(C)C
7.40	CC(C)(C)OC(=O)N[C@H](C=O)CSCc1ccccc1
7.42	CC(C)(C)OC(=O)N[C@H](C=O)COCc1ccccc1
7.51	CC(C)C[C@@H](C=O)NC(=O)OC(C)(C)C
9.96	CCCC[C@@H](C=O)NC(=O)[C@H](CC(C)C)NC(=O)OCc1ccccc1 [CALPEPTIN]
